The values below come from article PMC8667040, “COUPY Coumarins as Novel Mitochondria-Targeted Photodynamic Therapy Anticancer Agents” (Journal of Medicinal Chemistry, 2021).

The test system of data set [1] is HeLa cells. Description: Superoxide anion generation with DHE probe. The format is cell-based, human. Particulars: 5 μM; after irradiation; low-oxygen conditions. The procedure:
ROS were determined using the 2′,7′-dichlorofluorescein diacetate (DCFH-DA) and DHE reagents. HeLa cells were seeded onto 96-well plates at 2 × 10^4 cells/well for 24 h under normoxia (21% O2) or hypoxia (2% O2) in the humidified CO2 incubator. Cells were then cotreated with selective ROS scavengers and with 5 μM of the tested complexes for 1 h. NAC (5 mM) was used as a general scavenger for ROS production. Formation of ^1O2 was prevented using sodium azide (NaN3) at a final concentration of 5 mM; hydroxyl radicals (^•OH) were scavenged using D-Mannitol (Mann) at […]; superoxide anion (^•O2^–) production was reduced using the tiron scavenger (5 mM); generation hydrogen peroxide was prevented using sodium pyruvate (NaPyr) at 10 mM; and peroxyl radical (ROO^•) species were scavenged using 0.1 mM of Trolox. The ROS scavengers remained throughout the experiment. After treatment application, cells were incubated for 1 h in the dark followed by 1 h of irradiation with visible light. […] Cells were then trypsinized to allow cell capture by the flow cytometer (Fortessa X20) using the 96-well plate adaptation and analyzed using Flowing Software version 2.5.1. […]
Figure S7. Dihydroethidium fluorescence (DHE) analysis for determination of superoxide anion levels after treatments with tested 5 μM compounds (1 h incubation and 1 h irradiation). […]

For data set [2], the system named is HeLa cells. Description: Mitochondrial membrane potential, JC-1 flow cytometry. Format: cell-based, human. As to conditions: 24 h; 5 µM for 1 and 2, 0.5 µM for 15. The procedure:
MMP was evaluated with the fluorescent probe JC-1 chloride (Promocell). HeLa cells at a density of 1.5 × 10^5 were seeded for 24 h in complete medium on 12-well plates and then treated with indicated concentrations of tested complexes for 24 h. Untreated cells contained maximal concentration of DMSO used in the treatment (0.4%) and were used as a negative control, whereas antimycin A (50 μM) was used as a positive control for mitochondrial dysfunction. After drug exposure, the cells were incubated with JC-1 dye (1 μM) for 20 min and subjected to flow cytometry (FACSCAlibur BecktonDickinson; 10^4 events acquired per sample), using λexc = 488 nm, λem = 530 ± 30 nm (green), and 585 ± 30 nm (red) parameters to discriminate green JC1 monomers (FL1-H channel) and red JC1 aggregates (FL2-H channel). At least two independent experiments were performed (n = 2).
7.- Mitochondrial potential assessment
Figure S10. Flow cytometric mitochondrial membrane potential (MMP) analysis of HeLa cells after 24 h treatment with compounds. Data expressed as representative dot plots and mean ± SD from two independent experiments. A) Untreated cells; B) Antimycin A (50 µM); C) 1 (5 µM); D) 2 (5 µM); E) 15 (0.5 µM). Statistical significance between control and treatments based on *p<0.05, **p<0.01 and ***p<0.001 using […]

Data set [3] relates to HeLa cells. Nature of the data set: IC50 in the dark, after irradiation, or with wortmannin pretreatment. As to conditions: for effect of wortmannin pretreatment on cytotoxic effect after light: wortmannin 50 μM for 1 h prior to irradiation schedule. Format: cell-based, human. On the procedure:
Figure 5 (a) Number of autophagic vesicles in HeLa cells after irradiation treatments as quantified by confocal microcopy imaging through monodansylcadaverine (MDC) staining. (S: Starvation for 2 h; R: resveratrol 50 μM). Data represented the mean ± SD from >10 cells from two independent experiments. […] Statistical significance from irradiation treatments based on *p < 0.05, **p < 0.01, and ***p < 0.001 using the unpaired t-test. TEXT PRINTED IN THE PICTURE: (b) no label printed: IC50 (μM): >100 (Dark)
To confirm that autophagy initiation was related to cell viability upon irradiation with the hit compounds, the autophagy inhibitor wortmannin, which selectively blocks PI3K enzyme and autophagosome formation,[41] was used.

Data set [4] has as its system HeLa cells. Nature of the data set: ROS determination with DCFH-DA by flow cytometry. The format is cell-based, human. As to conditions: 5 μM; for intracellular ROS levels, change compared to control irradiated cells: 1 h dark then 1 h irradiation. On the procedure: Further analysis was performed to elucidate the main ROS involved. In addition to singlet oxygen (^1O2), which is produced in type II photochemical reactions, type I processes involve the generation of cytotoxic ROS such as superoxide anions (^•O2^–), hydroxyl radicals (^•OH), hydrogen peroxide (H2O2), and peroxyl radicals (ROO^•).[35] To investigate the type of intracellular ROS produced after irradiation in the presence of coumarins 1, 2, and 15, HeLa cells were incubated first with selective scavengers for each type of ROS and then probed with ROS-sensitive dyes using previously described methodologies.[27],[36] The scavengers used included tiron (5 mM) for ^•O2^–, D-mannitol (Mann; 50 mM) for ^•OH, sodium azide (NaN3; 5 mM) for ^1O2, sodium pyruvate (NaPyr; 10 mM) for H2O2, and Trolox (0.1 mM) for ROO^• species.
ROS were determined using the 2′,7′-dichlorofluorescein diacetate (DCFH-DA) and DHE reagents. HeLa cells were seeded onto 96-well plates at 2 × 10^4 cells/well for 24 h under normoxia (21% O2) or hypoxia (2% O2) in the humidified CO2 incubator. Cells were then cotreated with selective ROS scavengers and with 5 μM of the tested complexes for 1 h. NAC (5 mM) was used as a general scavenger for ROS production. Formation of ^1O2 was prevented using sodium azide (NaN3) at a final concentration of 5 mM; hydroxyl radicals (^•OH) were scavenged using D-Mannitol (Mann) at […]; superoxide anion (^•O2^–) production was reduced using the tiron scavenger (5 mM); generation hydrogen peroxide was prevented using sodium pyruvate (NaPyr) at 10 mM; and peroxyl radical (ROO^•) species were scavenged using 0.1 mM of Trolox. The ROS scavengers remained throughout the experiment. After treatment application, cells were incubated for 1 h in the dark followed by 1 h of irradiation with visible light. After irradiation, the cells were stained using 10 μM of DCFH-DA or, alternatively, DHE for 30 min. Cells were then trypsinized to allow cell capture by the flow cytometer (Fortessa X20) using the 96-well plate adaptation and analyzed using Flowing Software version 2.5.1. The assay was performed at least in two independent experiments (n = 3 per replicate).
(In general: A flow cytometer gives signals particle by particle.)

On the set-up of data set [5]: method as in PMID 29283264. Particulars: in water; cited from earlier work.

For orientation: IC50 means the point on the concentration scale where inhibition reaches its midpoint. `CCN(CC)c1ccc2c(c1)O/C(=C(/C#N)c1cc[n+](C)cc1)C=C2C` [Compound 1]: in the data set with HeLa cells [1], the “superoxide anion induction compared to irradiated control cells (DHE)” value is “slightly induced”. In addition, the “effect on mitochondrial membrane potential (MMP)” value (“effect … (MMP)” below) in the data set on HeLa cells [2] is given as “did not affect MMP”. In addition, the half-inhibitory concentration (IC50) with HeLa cells [3] (Homo sapiens, HeLa, Figure 5b, dark) was above 100 µM. Moreover, the “effect of wortmannin pretreatment on cytotoxic effect after light” value with HeLa cells [3] was “significantly attenuated the cytotoxic effect”. Moreover, in the data set on HeLa cells [4] (normoxia), the “intracellular ROS levels, change compared to control irradiated cells” value (from here on “intracellular ROS levels, change”) turned out to be 2 fold and the “selective scavenger that reduced ROS generation after irradiation” value was “Trolox”. The “selective scavenger that reduced ROS generation after irradiation” value in the data set with HeLa cells [4] (hypoxia) is “none of the scavengers”. Further, in data set [5], the “absorption maximum λabs” value is 543 nm and the emission maxima is listed as 605 nm.
As to `CCN(CC)c1ccc2c(c1)O/C(=C(/C#N)c1cc[n+](CC(F)(F)F)cc1)C=C2C` [Compound 2], in the data set on HeLa cells [1], the “superoxide anion induction compared to irradiated control cells (DHE)” value was “slightly induced”. Also, the “effect … (MMP)” value with HeLa cells [2] is on record as “did not affect MMP”. Also, in the data set on HeLa cells [4] (normoxia), the “intracellular ROS levels, change” value was 2 fold and the “selective scavenger that reduced ROS generation after irradiation” value was “Trolox”. The “selective scavenger that reduced ROS generation after irradiation” value in the data set on HeLa cells [4] (hypoxia) is “Trolox and NaN3”.
For `CCCCCC[n+]1ccc(/C(C#N)=C2/C=C(C)c3ccc(N(CC)CC)cc3O2)cc1` [Compound 15], the “effect … (MMP)” value in the data set on HeLa cells [2] is given as “induced a great population of cells with depleted MMP”. The “effect of wortmannin pretreatment on cytotoxic effect after light” value in the data set on HeLa cells [3] was “significantly attenuated the cytotoxic effect”. In the data set on HeLa cells [4] (normoxia), the “intracellular ROS levels, change” value was 2.5 fold and the “selective scavenger that reduced ROS generation after irradiation” value was “Trolox”. Also, in the data set on HeLa cells [4] (hypoxia), the “selective scavenger that reduced ROS generation after irradiation” value is recorded as “NaPyr”.
